From patent US8846024B2, “3′-[(2Z)-[1-(3,4-dimethylphenyl)-1,5-dihydro-3-methyl-5-oxo-4H-pyrazol-4-ylidene]hydrazino]-2′-hydroxy-[1,1′-biphenyl]-3-carboxylic acid bis-(monoethanolamine)” (GlaxoSmithKline LLC, priority 2002, dated 2014)
≈ marks a conversion by molar mass, not a printed value. Where two headings read alike, the source gives them in different places.

Legend:
[1] = Relative solubilities in water, 0.1% HCl and methanol; type: physicochemical; settings: 25 °C, 25 deg
Description: The solubility of 3′-[(2Z)-[1-(3,4-dimethylphenyl)-1,5-dihydro-3-methyl-5-oxo-4H-pyrazol-4-ylidene]hydrazino]-2′-hydroxy-[1,1′-biphenyl]-3-carboxylic acid as the free acid (Compound A) and as the bis-(monoethanolamine) salt (Compound B) was determined in three different systems: water, 0.1 HCl and methanol.

[2] = Solubility of the free acid in water (stated in description); type: physicochemical; settings: stated as approximate in the description
[3] = organic solvent or mixture, solvent methanol, read-out: Solubility at 25 deg, methanol
[4] = simulated gastric fluid, solvent 0.1% HCl, read-out: Solubility at 25 deg, 0.1% HCl
[5] = solvent water, read-out: Solubility at 25 deg, Water

CC1=NN(c2ccc(C)c(C)c2)C(=O)/C1=N\Nc1cccc(-c2cccc(C(=O)O)c2)c1O [Compound A, 3′-[(2Z)-[1-(3,4-dimethylphenyl)-1,5-dihydro-3-methyl-5-oxo-4H-pyrazol-4-ylidene]hydrazino]-2′-hydroxy-[1,1′-biphenyl]-3-carboxylic acid]
solubility [1, 3]: 1900 µg/mL (≈ 4290 µM) | solubility [1, 4]: < 1 µg/mL | solubility [1, 5]: < 1 µg/mL | solubility in water [2]: approximately 5 micrograms per milliliter

CC1=NN(c2ccc(C)c(C)c2)C(=O)/C1=N\Nc1cccc(-c2cccc(C(=O)O)c2)c1O.NCCO.NCCO [Compound B, 3′-[(2Z)-[1-(3,4-dimethylphenyl)-1,5-dihydro-3-methyl-5-oxo-4H-pyrazol-4-ylidene]hydrazino]-2′-hydroxy-[1,1′-biphenyl]-3-carboxylic acid bis-(monoethanolamine)]
solubility [1, 3]: 6400 µg/mL | solubility [1, 4]: < 1 µg/mL | solubility [1, 5]: 14200 µg/mL
